In US20250388589A1, “TRICYCLIC HETEROCYCLIC DERIVATIVES, COMPOSITIONS AND USES THEREOF” (Danatlas Pharmaceuticals Co., Ltd., priority 2022, published 2025):
Where two headings read alike, the source gives them in different places.

Assays:
[1] = molecular target: hPARG (C-terminal His6-tag) (Homo sapiens (Human), UniProt Q86W56); assay: PARG Enzymatic Activity Assay (HTRF); type: biochemical; conditions: hPARG 65 pM final, biotinylated-NAD ribosylated PARP1 8 nM final
Protocol: PARG Enzymatic Activity Assay HTRF assay was used to measure the ability of compounds to inhibit the activity of PARG in vitro. C-terminal His6-tag PARG expressed in E. coli was purified and stored at −80° C. in aliquots. Assay measurements were performed with 1×buffer comprising 50 mM Tris pH 7.4, 0.1 mg/mL BSA, 3 mM EDTA, 0.4 mM EGTA, 1 mM DTT, 50 mM KCl and 0.01% Tween 20.
Compounds dissolved in DMSO were plated into a 384-well assay plate (PerkinElmer, Catalog #: 6008280) in duplicate using a dispenser (Labcyte, Echo 665), and tested on a 10-point 4-fold serial dilution. Add 5 L Enzyme mix [hPARG (C-terminal His6-tag, 4.2 μM), 65 pM final] to the test wells. The plates were covered and left to incubate for 60 minutes at RT before the addition of 5 L substrate mix [biotinylated-NAD ribosylated PARP1 (6.1 μM), 8 nM final] to initiate reaction. After incubating 10 minutes at RT, add 2.5 L Streptavidin-Eu cryptate (Cisbio, Catalog #: 610SAKLA) and 2.5 L Mab anti 6HIS-XL665 (Cisbio, Catalog #: 61HISXLA) to the plate, and incubate for 60 minutes at RT. Read on a multimode plate reader (PerkinElmer, Envision 2015) in time-resolved fluorescence (TRF) mode, with excitation at 337 nm and emission at both 620 nm and 665 nm. Average HTRF signal of high control (Wells with 1% DMSO) was calculated and as Vehicle Control (VC). Average HTRF signal of low control (no Enzyme) was calculated and as Positive control (PC).
(§1) IC50 values were determined by fitting the data to the standard 4 parameters with Hill Slope using GraphPad Prism software.

Kuramochi cell line = assay: Cell Viability Assay (Cell Titer-Glo, 7 days); type: cell-based; conditions: Kuramochi cells, 7 days incubation, read-out: PARG Cell viability (IC50)
Protocol: Cell viability studies were conducted in Kuramochi cell line. Cells were maintained in RPMI (Hyclone, Catalog #: SH3080901B) supplemented with 10% v/v FBS (AusGeneX, Catalog #: FBS500-S), 1% v/v Penicillin Streptomycin (Gibco, Catalog #: 15140122). Cells were seeded in 96-well plates (PerkinElmer, Catalog #: 6005680) at a density of 400 cells/well. Compounds dissolved in DMSO were plated in duplicate using a multichannel pipette, and tested on a 9-point 3-fold serial dilution. Cells were incubated for 7 days in a 37° C. active humidified incubator at 5% CO2. Cell viability was measured using the Cell Titer-Glo reagent (Promega, Catalog #: G7573) as manufacturer's instructions. Luminescence signal was measured with a multimode plate reader (Perkin Elmer, Envision 2105 or BMG, ClarioStar Plus). Average values of DMSO treated wells in a plate was calculated and as high control (HC). Average values of only medium in a plate was calculated and as low control (LC)
as §1

hPARG (C-terminal His6-tag), sequence (Q86W56 whole entry): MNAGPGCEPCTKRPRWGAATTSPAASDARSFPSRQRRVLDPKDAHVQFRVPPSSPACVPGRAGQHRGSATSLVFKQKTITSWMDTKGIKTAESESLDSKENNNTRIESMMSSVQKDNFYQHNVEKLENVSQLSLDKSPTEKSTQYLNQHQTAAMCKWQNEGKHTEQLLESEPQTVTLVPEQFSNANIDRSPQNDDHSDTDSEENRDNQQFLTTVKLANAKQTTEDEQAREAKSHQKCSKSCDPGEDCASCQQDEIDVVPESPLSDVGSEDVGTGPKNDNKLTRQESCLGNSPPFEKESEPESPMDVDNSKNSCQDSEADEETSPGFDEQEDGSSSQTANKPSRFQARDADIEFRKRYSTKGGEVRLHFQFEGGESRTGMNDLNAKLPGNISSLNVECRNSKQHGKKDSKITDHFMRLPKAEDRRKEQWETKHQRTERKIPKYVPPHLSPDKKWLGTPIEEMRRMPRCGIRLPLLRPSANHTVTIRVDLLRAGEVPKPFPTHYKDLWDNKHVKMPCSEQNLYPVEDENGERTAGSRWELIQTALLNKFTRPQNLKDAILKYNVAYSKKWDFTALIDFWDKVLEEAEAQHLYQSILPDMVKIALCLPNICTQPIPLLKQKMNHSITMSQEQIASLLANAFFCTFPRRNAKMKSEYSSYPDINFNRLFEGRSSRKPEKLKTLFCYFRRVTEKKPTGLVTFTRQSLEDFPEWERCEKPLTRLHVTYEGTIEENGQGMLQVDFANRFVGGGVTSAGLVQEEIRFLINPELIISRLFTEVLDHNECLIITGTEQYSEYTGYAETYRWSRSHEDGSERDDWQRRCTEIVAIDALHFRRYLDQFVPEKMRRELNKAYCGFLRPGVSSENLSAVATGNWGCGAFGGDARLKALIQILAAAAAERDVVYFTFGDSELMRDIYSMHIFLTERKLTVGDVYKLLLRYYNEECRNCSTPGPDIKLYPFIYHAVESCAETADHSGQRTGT

Question: Which IC50 [1] does the source give for `CC(C)C(=O)N1CCC(c2ncnc3c2c2ccc(S(=O)(=O)NC4(C#N)CC4)cc2n3-c2nnc(C(F)F)s2)C[C@@H]1C` (stereo partly drawn) [Example 151, N-(1-Cyanocyclopropyl)-9-(5-(difluoromethyl)-1,3,4-thiadiazol-2-yl)-4-((2S)-1-isobutyryl-2-methylpiperidin-4-yl)-9H-pyrimido[4,5-b]indole-7-sulfonamide] here?
Answer: < 100 nM

Question: What about the IC50 (Kuramochi cell line; 168 h) of the same molecule?
Answer: < 100 nM

Question: With `CC(O)CN(C)C(=O)N1CCC(c2ncnc3c2c2ccc(S(=O)(=O)NC4(C#N)CC4)cc2n3-c2nnc(C(F)F)s2)CC1` (centres unmarked) [Example 142, 4-(7-(N-(1-cyanocyclo-propyl)sulfamoyl)-9-(5-(difluoromethyl)-1,3,4-thiadiazol-2-yl)-9H-pyrimido[4,5-b]indol-4-yl)-N-(2-hydroxypropyl)-N-methylpiperidine-1-carboxamide] as the molecule, how does the IC50 [1] read?
Answer: < 100 nM

Question: What about the IC50 (Kuramochi cell line; 168 h) of the same molecule?
Answer: < 100 nM

Question: For `CN(C)[C@@H]1CCN(C(=O)N2CCC(c3ncnc4c3c3ccc(S(=O)(=O)NC5(C#N)CC5)cc3n4-c3nnc(C(F)F)s3)CC2)C1` [Example 137, (R)-N-(1-Cyanocyclo-propyl)-9-(5-(difluoromethyl)-1,3,4-thiadiazol-2-yl)-4-(1-(3-(dimethylamino)pyrrolidine-1-carbonyl)piperidin-4-yl)-9H-pyrimido[4,5-b] indole-7-sulfonamide], which IC50 [1] is on record?
Answer: < 100 nM

Question: What about the IC50 (Kuramochi cell line; 168 h) of the same molecule?
Answer: 100 to 1000 nM

Question: Which IC50 [1] does the source give for `C[C@@H]1CN(C(=O)N(C)C)CCN1c1ncnc2c1c1ccc(S(=O)(=O)NC3(C#N)CC3)cc1n2-c1nnc(C(F)F)s1` [Example 73, (R)-4-(7-(N-(1-Cyanocyclopropyl)sulfamoyl)-9-(5-(difluoromethyl)-1,3,4-thiadiazol-2-yl)-9H-pyrimido[4,5-b]indol-4-yl)-N,N,3-trimethylpiperazine-1-carboxamide] here?
Answer: < 100 nM

Question: And the IC50 (Kuramochi cell line; 168 h)?
Answer: < 100 nM

Question: How did the IC50 [1] turn out when `COCCN1CCN(c2ncnc3c2c2ccc(S(=O)(=O)NC4(C#N)CC4)cc2n3-c2nnc(C(F)F)s2)C[C@@H]1C` [Example 178, (S)-N-(1-cyanocyclopropyl)-9-(5-(difluoromethyl)-1,3,4-thiadiazol-2-yl)-4-(4-(2-methoxyethyl)-3-methylpiperazin-1-yl)-9H-pyrimido[4,5-b]indole-7-sulfonamide] was run?
Answer: < 100 nM

Question: And the IC50 (Kuramochi cell line; 168 h)?
Answer: < 100 nM

Question: For `N#CC1(NS(=O)(=O)c2ccc3c4c(C5CCN(C(=O)N6CCOCC6)CC5)ncnc4n(-c4nnc(C(F)F)s4)c3c2)CC1` [Example 140, N-(1-cyanocyclo-propyl)-9-(5-(difluoromethyl)-1,3,4-thiadiazol-2-yl)-4-(1-(morpholine-4-carbonyl)piperidin-4-yl)-9H-pyrimido [4,5-b]indole-7-sulfonamide], which IC50 [1] is on record?
Answer: < 100 nM

Question: What about the IC50 (Kuramochi cell line; 168 h) of the same molecule?
Answer: < 100 nM

Question: With `COC1CCN(c2ncnc3c2c2ccc(S(=O)(=O)NC4(C#N)CC4)cc2n3-c2nnc(C(F)F)s2)CC1` [Example 44, N-(1-Cyanocyclopropyl)-9-(5-(difluoromethyl)-1,3,4-thiadiazol-2-yl)-4-(4-methoxypiperidin-1-yl)-9H-pyrimido[4,5-b]indole-7-sulfonamide] as the molecule, how does the IC50 [1] read?
Answer: < 100 nM

Question: What about the IC50 (Kuramochi cell line; 168 h) of the same molecule?
Answer: < 100 nM

Question: Which IC50 [1] does the source give for `C[C@H]1CC(c2ncnc3c2c2cc(F)c(S(=O)(=O)NC4(C)CC4)cc2n3-c2nnc(C(F)F)s2)CCN1C(=O)N(C)C` (stereo partly drawn) [Example 149, (2S)-4-(9-(5-(difluoromethyl)-1,3,4-thiadiazol-2-yl)-6-fluoro-7-(N-(1-methylcyclopropyl)sulfamoyl)-9H-pyrimido[4,5-b]indol-4-yl)-N,N,2-trimethylpiperidine-1-carboxamide] here?
Answer: < 100 nM

Question: What about the IC50 (Kuramochi cell line) of the same molecule?
Answer: < 100 nM

Question: Which results are given for `C[C@H]1CN(c2ncnc3c2c2ccc(S(=O)(=O)NC4(C#N)CC4)cc2n3-c2nnc(C(F)F)s2)CCN1CC1CC1` [Example 164, (S)-N-(1-cyanocyclopropyl)-4-(4-(cyclopropylmethyl)-3-methylpiperazin-1-yl)-9-(5-(difluoromethyl)-1,3,4-thiadiazol-2-yl)-9H-pyrimido[4,5-b]indole-7-sulfonamide]?
Answer: IC50 [1]: < 100 nM; IC50 (Kuramochi cell line; 168 h): < 100 nM

Question: Which IC50 [1] does the source give for `N#CC1(NS(=O)(=O)c2ccc3c4c(N5CCN(c6nccs6)CC5)ncnc4n(-c4nnc(C(F)F)s4)c3c2)CC1` [Example 16, N-(1-Cyanocyclopropyl)-9-(5-(difluoromethyl)-1,3,4-thiadiazol-2-yl)-4-(4-(thiazol-2-yl)piperazin-1-yl)-9H-pyrimido[4,5-b]indole-7-sulfonamide] here?
Answer: 100 to 1000 nM

Question: What about the IC50 (Kuramochi cell line; 168 h) of the same molecule?
Answer: 100 to 1000 nM

Question: `CCC(=O)N1CCC(c2ncnc3c2c2ccc(S(=O)(=O)NC4(C#N)CC4)cc2n3-c2nnc(C(F)F)s2)CC1` [Example 120, N-(1-cyanocyclopropyl)-9-(5-(difluoromethyl)-1,3,4-thiadiazol-2-yl)-4-(1-propionylpiperidin-4-yl)-9H-pyrimido[4,5-b]indole-7-sulfonamide] was tested. Which IC50 [1] did it give?
Answer: < 100 nM

Question: And the IC50 (Kuramochi cell line; 168 h)?
Answer: < 100 nM

Question: How did the IC50 [1] turn out when `CC(C)C(=O)N1CCCN(c2ncnc3c2c2ccc(S(=O)(=O)NC4(C#N)CC4)cc2n3-c2nnc(C(F)F)s2)CC1` [Example 25, N-(1-Cyanocyclopropyl)-9-(5-(difluoromethyl)-1,3,4-thiadiazol-2-yl)-4-(4-isobutyryl-1,4-diazepan-1-yl)-9H-pyrimido[4,5-b]indole-7-sulfonamide] was run?
Answer: < 100 nM

Question: What about the IC50 (Kuramochi cell line; 168 h) of the same molecule?
Answer: 100 to 1000 nM

Question: What does the source list for `CC(C)C(=O)N1CCN(c2ncnc3c2c2ccc(S(=O)(=O)NC4(C#N)CC4)cc2n3-c2nnc(C(F)F)s2)CC1` [Example 11, N-(1-Cyanocyclopropyl)-9-(5-(difluoromethyl)-1,3,4-thiadiazol-2-yl)-4-(4-isobutyrylpiperazin-1-yl)-9H-pyrimido[4,5-b]indole-7-sulfonamide]?
Answer: IC50 [1]: < 100 nM; IC50 (Kuramochi cell line; 168 h): < 100 nM

Question: Which IC50 [1] does the source give for `CC(C)c1nnc(-n2c3cc(S(=O)(=O)NC4(C#N)CC4)ccc3c3c(N4CCN(C(=O)C5CC5)CC4)ncnc32)s1` [Example 186, N-(1-Cyanocyclopropyl)-4-(4-(cyclopropanecarbonyl)piperazin-1-yl)-9-(5-isopropyl-1,3,4-thiadiazol-2-yl)-9H-pyrimido[4,5-b]indole-7-sulfonamide] here?
Answer: 100 to 1000 nM

Question: And the IC50 (Kuramochi cell line; 168 h)?
Answer: 100 to 1000 nM

Question: What does the source list for `N#CC1(NS(=O)(=O)c2ccc3c4c(C5CCN(C(=O)N6CC[C@@H](O)C6)CC5)ncnc4n(-c4nnc(C(F)F)s4)c3c2)CC1` [Example 129, (R)—N-(1-Cyanocyclopropyl)-9-(5-(difluoromethyl)-1,3,4-thiadiazol-2-yl)-4-(1-(3-hydroxypyrrolidine-1-carbonyl)piperidin-4-yl)-9H-pyrimido[4,5-b]indole-7-sulfonamide]?
Answer: IC50 [1]: < 100 nM; IC50 (Kuramochi cell line; 168 h): 100 to 1000 nM

Question: With `CN1CCN(C(=O)N2CCC(c3ncnc4c3c3ccc(S(=O)(=O)NC5(C#N)CC5)cc3n4-c3nnc(C(F)F)s3)CC2)CC1` [Example 141, N-(1-cyanocyclo-propyl)-9-(5-(difluoromethyl)-1,3,4-thiadiazol-2-yl)-4-(1-(4-methylpiperazine-1-carbonyl)piperidin-4-yl)-9H-pyrimido [4,5-b]indole-7-sulfonamide] as the molecule, how does the IC50 [1] read?
Answer: < 100 nM

Question: And the IC50 (Kuramochi cell line; 168 h)?
Answer: 100 to 1000 nM

Question: With `N#CC1(NS(=O)(=O)c2ccc3c4c(N5CCN6C(=O)COC[C@H]6C5)ncnc4n(-c4nnc(C(F)F)s4)c3c2)CC1` [Example 168, (R)—N-(1-Cyanocyclopropyl)-9-(5-(difluoromethyl)-1,3,4-thiadiazol-2-yl)-4-(4-oxohexahydropyrazino[2,1-c][1,4]oxazin-8(1H)-yl)-9H-pyrimido[4,5-b]indole-7-sulfonamide] as the molecule, how does the IC50 [1] read?
Answer: < 100 nM

Question: And the IC50 (Kuramochi cell line; 168 h)?
Answer: < 100 nM

Question: Which results are given for `C[C@H]1CN(c2ncnc3c2c2cc(F)c(S(=O)(=O)NC4(C#N)CC4)cc2n3-c2nnc(C(F)F)s2)CCN1C(=O)N(C)C` [Example 46, (S)-4-(7-(N-(1-Cyanocyclopropyl)sulfamoyl)-9-(5-(difluoromethyl)-1,3,4-thiadiazol-2-yl)-6-fluoro-9H-pyrimido[4,5-b]indol-4-yl)-N,N,2-trimethylpiperazine-1-carboxamide]?
Answer: IC50 [1]: < 100 nM; IC50 (Kuramochi cell line; 168 h): < 100 nM

Question: For `N#CC1(NS(=O)(=O)c2ccc3c4c(N5CCN(C(=O)N6CCCC6)CC5)ncnc4n(-c4nnc(C(F)F)s4)c3c2)CC1` [Example 41, N-(1-Cyanocyclopropyl)-9-(5-(difluoromethyl)-1,3,4-thiadiazol-2-yl)-4-(4-(pyrrolidine-1-carbonyl)piperazin-1-yl)-9H-pyrimido[4,5-b]indole-7-sulfonamide], which IC50 [1] is on record?
Answer: < 100 nM

Question: And the IC50 (Kuramochi cell line; 168 h)?
Answer: < 100 nM
